Results from US8771953B2, “Evaluation of the potential risk of drug induced mood disturbance and suicide: use of a dedicated platform” (Biocortech, priority 2008, dated 2014).

Tested on: 5-HT2cR mRNA
Experiment: Editing profile of 5-HT2cR mRNA isoforms by CE-SSCP (nested PCR) in SH-SY5Y cells; enzyme activity indexes worked out from the profile
Type: cell-based, human
Conditions: SH-SY5Y cells, 48 hours, 10 μM

C[C@H](NC(=O)C(C)(C)Oc1ccc(C(F)(F)F)cn1)[C@@H](Cc1ccc(Cl)cc1)c1cccc(C#N)c1 [Taranabant]
alteration of 5-HT2cR mRNA editing compared with that observed after INFα treatment (component analysis, FIG. 4): similarly altered
